The record followed here is patent publication US12391697B2, “Condensed bi-heterocycles as inhibiting agents for Bruton's tyrosine kinase” (BIOGEN MA INC., priority 2019, dated 2025).

The assay addresses BTK (Homo sapiens (Human), UniProt Q06187). In words: In Vitro BTK Kinase Assay: Btk-PolyGAT-LS Assay. Format: biochemical. Particulars: active BTK enzyme 0.25 nM, ATP 10 μM, polyGAT 100 nM, 30 minutes. Here is the method:
In Vitro BTK Kinase Assay: Btk-PolyGAT-LS Assay
The purpose of the BTK in vitro assay is to determine compound potency against BTK through the measurement of IC50. […] The BTK kinase reaction was done in a black 96 well plate (costar 3694). For a typical assay, a […] aliquot of a ATP/peptide master mix (final concentration; ATP 10 μM, polyGAT 100 nM) in kinase buffer (10 mM Tris-HCl pH 7.5, 10 mM MgCl2, 200 μM […], 5 mM DTT, 0.01% Triton X-100, and 0.2 mg/ml casein) is added to each well. Next, […] of a 4-fold, 40× compound titration in 100% DMSO solvent is added, followed by adding 15 uL of BTK enzyme mix in 1× kinase buffer (with a final concentration of 0.25 nM). The assay is incubated for 30 minutes before being stopped with […] of a 50 mM EDTA solution. Aliquots (5 uL) of the kinase reaction are transferred to a low volume white 384 well plate (Corning 3674), and […] of a 2× detection buffer (Invitrogen PV3574, with 4 nM Tb-PY20 antibody, Invitrogen PV3552) is added. The plate is covered and incubated for 45 minutes at room temperature. Time resolved fluorescence (TRF) on Molecular Devices M5 (332 nm excitation; 488 nm emission; 518 nm fluorescein emission) is measured.

Each structure is given as a SMILES string. Counter-ions that a name gives are not always drawn. Where only a bound is given, the exact number is not on record here.

BTK, sequence (Q06187 whole entry): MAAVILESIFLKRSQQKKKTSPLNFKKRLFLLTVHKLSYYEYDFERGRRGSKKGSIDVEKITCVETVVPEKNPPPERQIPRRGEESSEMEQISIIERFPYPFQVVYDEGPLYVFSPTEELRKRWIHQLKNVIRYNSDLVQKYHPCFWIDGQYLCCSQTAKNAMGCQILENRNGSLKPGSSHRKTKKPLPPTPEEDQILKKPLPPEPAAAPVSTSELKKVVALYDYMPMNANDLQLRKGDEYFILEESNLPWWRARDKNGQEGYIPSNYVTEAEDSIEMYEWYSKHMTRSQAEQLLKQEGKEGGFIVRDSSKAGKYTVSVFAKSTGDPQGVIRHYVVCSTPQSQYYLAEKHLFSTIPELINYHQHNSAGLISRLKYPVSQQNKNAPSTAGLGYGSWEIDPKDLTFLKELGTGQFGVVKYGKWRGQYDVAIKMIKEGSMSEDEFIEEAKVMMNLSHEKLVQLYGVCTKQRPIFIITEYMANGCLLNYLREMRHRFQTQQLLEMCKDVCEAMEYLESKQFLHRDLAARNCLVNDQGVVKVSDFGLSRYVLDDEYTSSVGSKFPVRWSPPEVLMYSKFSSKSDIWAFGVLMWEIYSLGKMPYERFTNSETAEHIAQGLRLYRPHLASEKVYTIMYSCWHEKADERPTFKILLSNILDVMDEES

The term IC50 denotes the concentration at which inhibition is half-maximal. High values mean lower potency, low ones higher potency. Turning to `C[C@@H](NC(=O)c1nnc(C(C)(C)C)o1)c1ccc(-c2ncnn3cc(N4CCOCC4)cc23)cc1Cl` [Example 204], the IC50 lay in the range of 1 to 10 nM. With `CC(C)(C)c1nc(C(=O)NCc2ccc(-c3ncnn4cccc34)cc2Cl)no1` [Example 178] the figure was 1 to 10 nM; with `Cc1cc(-c2ncnn3cc(-c4cn[nH]c4)cc23)ccc1CNC(=O)c1noc(C(C)(C)C)n1` [Example 85], at most 1 nM. The figure for `CC(C)(C)n1cc(C(=O)NCc2ccc(-c3ncnn4cc(N5CCOCC5)cc34)cc2Cl)cn1` [Example 160] is at most 1 nM. With `CC(C)(C)c1nnc(C(=O)NCc2ccc(-c3ncnn4cc(N5CCOCC5)cc34)cc2Cl)o1` [Example 161] the figure was 1 to 10 nM; with `Cc1cc(-c2ncnn3cccc23)ccc1CNC(=O)c1ccn(C(C)(C)C)n1` [Example 182], over 10 nM; with `Cc1cc(-c2ncnn3cc(-c4cnn(C(F)F)c4)cc23)ccc1CNC(=O)c1noc(C(C)(C)C)n1` [Example 107], at most 1 nM.

In the case of `Cc1cc(-c2ncnn3cc(-c4cn(C)nn4)cc23)ccc1CNC(=O)c1noc(C(C)(C)C)n1` [Example 106], the half-maximal inhibitory concentration (IC50) is at most 1 nM. Take `Cc1cc(-c2ncnn3cc(N4CCOCC4C)cc23)ccc1CNC(=O)c1noc(C(C)(C)C)n1` (stereo not drawn) [Example 229]: the IC50 lay within 1 to 10 nM. The figure for `Cc1cc(-c2ncnn3cc(N4CCOCC4)cc23)ccc1CNC(=O)c1coc(C(C)(C)C)n1` [Example 176] is 1 to 10 nM; for `Cc1cc(-c2ncnn3cc(C4CCOCC4)cc23)ccc1CNC(=O)c1nc(C(C)(C)C)no1` [Example 72, 3-(tert-butyl)-N-(2-methyl-4-(6-(tetrahydro-2H-pyran-4-yl)pyrrolo[2,1-f][1,2,4]triazin-4-yl)benzyl)-1,2,4-oxadiazole-5-carboxamide trifluoroacetate] it is 1 to 10 nM; for `Cc1c(CNC(=O)c2noc(C(C)(C)C)n2)cc(F)c(-c2ncnn3cccc23)c1F` [Example 63, 5-(tert-butyl)-N-(3,5-difluoro-2-methyl-4-(pyrrolo[2,1-f][1,2,4]triazin-4-yl)benzyl)-1,2,4-oxadiazole-3-carboxamide hydrochloride] it is 1 to 10 nM. With `Cc1cc(-c2ncnn3cc(-c4cnn(C)c4)cc23)ccc1CNC(=O)c1cn(C(C)(C)C)nn1` [Example 166] the figure was at most 1 nM. `CC(C)(C)c1noc(C(=O)NCc2ccc(-c3ncnn4cc(N5CCOCC5)cc34)cc2C(F)F)n1` [Example 192]: the 50% inhibitory concentration (IC50) is at most 1 nM. `C#Cc1cc2c(-c3ccc(CNC(=O)c4noc(C(C)(C)C)n4)c(C)c3)ncnn2c1` [Example 76, 5-(tert-butyl)-N-(4-(6-ethynylpyrrolo[2,1-f][1,2,4]triazin-4-yl)-2-methylbenzyl)-1,2,4-oxadiazole-3-carboxamide trifluoroacetate] gave a 50% inhibitory concentration (IC50) of 1 to 10 nM. `Cc1cc(-c2ncnn3cc(C(=O)N4CCN(C)CC4)cc23)ccc1CNC(=O)c1noc(C(C)(C)C)n1` [Example 216] displayed a concentration for half-maximal inhibition (IC50) of over 10 nM.

As to `Cc1cc(-c2ncnn3cc(-c4cnn(C)c4)cc23)ccc1CNC(=O)c1nnn(C(C)(C)C)n1` [Example 113], the IC50 is at most 1 nM. With `COc1c(CNC(=O)c2nc(C(C)(C)C)no2)ccc(-c2ncnn3cc(N4CCOCC4)cc23)c1F` [Example 203] the figure was at most 1 nM; with `COC1CCN(c2cc3c(-c4ccc(CNC(=O)c5nc(C(C)(C)C)no5)c(C)c4)ncnn3c2)CC1` [Example 97], at most 1 nM; with `Cc1cc(-c2ccnn3cccc23)ccc1CNC(=O)c1noc(C(C)(C)C)n1` [Example 17, 5-(tert-butyl)-N-(2-methyl-4-(pyrrolo[1,2-b]pyridazin-4-yl)benzyl)-1,2,4-oxadiazole-3-carboxamide], 1 to 10 nM. The figure for `CC(C)(C)c1coc(C(=O)NCc2ccc(-c3ncnn4cc(N5CCOCC5)cc34)cc2C(F)F)n1` [Example 222] is 1 to 10 nM. With `Cc1cc(-c2ncnn3cc(-c4cnco4)cc23)ccc1CNC(=O)c1noc(C(C)(C)C)n1` [Example 110] the figure was at most 1 nM; with `Cc1cc(-c2ncnn3cc(N4CCN5CC(F)(F)C[C@H]5C4)cc23)ccc1CNC(=O)c1nc(C(C)(C)C)no1` [Example 123], at most 1 nM; with `Cc1cc(-c2ncnn3cc(-c4ccccn4)cc23)ccc1CNC(=O)c1noc(C(C)(C)C)n1` [Example 230], at most 1 nM. Consider `Cc1cc(-c2ncnn3cc(-c4cnn(C5COC5)c4)cc23)ccc1CNC(=O)c1noc(C(C)(C)C)n1` [Example 104], for which the half-maximal inhibitory concentration (IC50) was at most 1 nM. With `CC(C)(C)c1nnc(C(=O)NCc2ccc(-c3ncnn4cc(C5=CCOCC5)cc34)cc2C(F)F)o1` [Example 213] the figure was 1 to 10 nM; with `Cc1c(CNC(=O)c2noc(C(C)(C)C)n2)ccc(-c2ncnn3cc(-c4cnn(C)c4)cc23)c1F` [Example 112], at most 1 nM.

Regarding `CC(C)(C)n1cc(C(=O)NCc2ccc(-c3ncnn4cc(N5CCOCC5)cc34)cc2C(F)(F)F)nn1` [Example 187], the half-inhibitory concentration (IC50) was at most 1 nM.

For `Cc1cc(-c2ncnn3cc(N4CCO[C@H](C)C4)cc23)ccc1CNC(=O)c1nc(C(C)(C)C)no1` (single isomer, unassigned) [Example 137], the IC50 was at most 1 nM.

`Cc1cc(-c2ncnn3cc(N4CCN(C)[C@@H](C)C4)cc23)ccc1CNC(=O)c1noc(C(C)(C)C)n1` (single isomer, unassigned) [Example 116] displayed a concentration for half-maximal inhibition (IC50) of at most 1 nM. The figure for `Cc1cc(-c2ncnn3cc(-c4cnn(C)c4)cc23)ccc1CNC(=O)c1noc(C(C)(C)CF)n1` [Example 41, 5-(1-fluoro-2-methylpropan-2-yl)-N-(2-methyl-4-(6-(1-methyl-1H-pyrazol-4-yl)pyrrolo[2,1-f][1,2,4]triazin-4-yl)benzyl)-1,2,4-oxadiazole-3-carboxamide] is at most 1 nM; for `Cc1cc(-c2ncnn3cc(N4CCN(C)C(C)C4)cc23)ccc1CNC(=O)c1nnn(C(C)(C)C)n1` (stereo not drawn) [Example 98] it is at most 1 nM; for `Cc1cc(-c2ncnn3cc(-c4cncnc4)cc23)ccc1CNC(=O)c1noc(C(C)(C)C)n1` [Example 226] it is at most 1 nM. The figure for `Cc1cc(-c2ncnn3cc(C4=CCSCC4)cc23)ccc1CNC(=O)c1noc(C(C)(C)C)n1` [Example 101] is at most 1 nM; for `COc1cc(-c2ncnn3cc(-c4cnn(C)c4)cc23)ccc1CNC(=O)c1cn(C(C)(C)C)nn1` [Example 188] it is 1 to 10 nM; for `Cc1cc(-c2ncnn3ccnc23)ccc1CNC(=O)c1noc(C(C)(C)C)n1` [Example 52] it is 1 to 10 nM.

The molecule `Cc1cc(-c2ncnn3cc(N4CCO[C@H](C)C4)cc23)ccc1CNC(=O)c1coc(C(C)(C)C)n1` (single isomer, unassigned) [Example 143] gave an IC50 of at most 1 nM. With `Cc1cc(-c2ncnn3cc(-c4cnn(C)c4C)cc23)ccc1CNC(=O)c1cnc(C(C)(C)C)o1` [Example 131] the figure was 1 to 10 nM.

`Cc1cc(-c2ncnn3cc(C(=O)N(C)C)cc23)ccc1CNC(=O)c1noc(C(C)(C)C)n1` [Example 67, 5-(tert-butyl)-N-(4-(6-(dimethylcarbamoyl)pyrrolo[2,1-f][1,2,4]triazin-4-yl)-2-methylbenzyl)-1,2,4-oxadiazole-3-carboxamide hydrochloride] yielded an IC50 of at most 1 nM. With `C=CC(=O)n1cc(-c2cc3c(-c4ccc(CNC(=O)c5noc(C(C)(C)C)n5)c(C)c4)ncnn3c2)cn1` [Example 59, N-(4-(6-(1-acryloyl-1H-pyrazol-4-yl)pyrrolo[2,1-f][1,2,4]triazin-4-yl)-2-methylbenzyl)-5-(tert-butyl)-1,2,4-oxadiazole-3-carboxamide] the figure was at most 1 nM; with `Cc1cc(-c2cc3c(-c4ccc(CNC(=O)c5nc(C(C)(C)C)no5)c(C)c4)ncnn3c2)cnn1` [Example 171], at most 1 nM. The figure for `Cc1cc(-c2ncnn3cc(-c4ncccn4)cc23)ccc1CNC(=O)c1noc(C(C)(C)C)n1` [Example 68, 5-(tert-butyl)-N-(2-methyl-4-(6-(pyrimidin-2-yl)pyrrolo[2,1-f][1,2,4]triazin-4-yl)benzyl)-1,2,4-oxadiazole-3-carboxamide hydrochloride] is at most 1 nM. The figure for `CC(C)(C)n1cc(C(=O)NCc2ccc(-c3ncnn4cc(N5CCOCC5)cc34)c(F)c2C2CC2)nn1` [Example 164] is 1 to 10 nM; for `CC(C)(C)c1nc(C(=O)NCc2ccc(-c3ncnn4cccc34)cc2C(F)(F)F)no1` [Example 179] it is 1 to 10 nM. The molecule `CC(C)(C)c1nnc(C(=O)NCc2ccc(-c3ncnn4cc(N5CCOCC5)cc34)c(F)c2C(F)F)o1` [Example 199] displayed a half-inhibitory concentration (IC50) of 1 to 10 nM.

Turning to `Cc1cc(-c2ccnn3ccnc23)ccc1CNC(=O)c1noc(C(C)(C)C)n1` [Example 21, 5-(tert-butyl)-N-(4-(imidazo[1,2-b]pyridazin-8-yl)-2-methylbenzyl)-1,2,4-oxadiazole-3-carboxamide trifluoroacetate], the IC50 is 1 to 10 nM. With `COc1c(CNC(=O)c2cn(C(C)(C)C)nn2)ccc(-c2ncnn3cc(-c4cnn(C)c4)cc23)c1F` [Example 200] the figure was 1 to 10 nM; with `Cc1cc(-c2cc3c(-c4ccc(CNC(=O)c5noc(C(C)(C)C)n5)c(C)c4)ncnn3c2)ccn1` [Example 227], at most 1 nM.
